In patent publication US9187472B2 (AbbVie Inc., priority 2012, dated 2015):

Legend:
[1] = molecular target: NAMPT (human, recombinant, C-terminally His-tagged) (Homo sapiens, UniProt P43490); test: Time-Resolved Fluorescence Resonance Energy Transfer (TR-FRET) Binding Assay of NAMPT; conditions: without substrates; 6.8 nM NAMPT, 200 nM probe, 3 hours equilibration
In short: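 Probe displacement by compound was measured with 6.8 nM NAMPT, 200 nM Oregon Green 488-conjugated nicotinamide-competitive inhibitor probe and 1 nM Tb-anti-His antibody in 50 mM HEPES pH 7.5, 100 mM NaCl, 10 mM MgCl2, 1 mM DTT, 1% glycerol, 2% DMSO (final). After 3 h at room temperature, TR-FRET was read; IC50 from four-parameter logistic fit.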

NAMPT = NAMPT (Homo sapiens, UniProt P43490); test: TR-FRET Binding Assay of NAMPT with PRPP; conditions: with 200 μM PRPP and 2.5 mM ATP; 2 nM NAMPT, 2 nM probe, 16 hours equilibration
In short: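 Run in the presence of substrates (200 μM PRPP, 2.5 mM ATP) with final 2 nM NAMPT, 2 nM probe, 1 nM Tb-anti-His antibody and 2% DMSO. Mixtures equilibrated 16 h before TR-FRET measurement so test compounds could be enzymatically modified.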

PC3 cells = test: NAMPT Cell Proliferation Assay; format: cell-based; conditions: Homo sapiens, PC-3, 120 h, 5 days incubation, cell viability by Cell Titer Glo
In short: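 Seed PC3 at 500 cells/well (RPMI, 10% HI-FBS), attach overnight; add compound, 10-fold series 10 μM → 1×10^−5 μM; incubate 5 d, 37° C/5% CO2; luminescent viability readout; fit % inhibition sigmoidally for IC50.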

Chain of NAMPT (human, recombinant, C-terminally His-tagged) (P43490 whole entry): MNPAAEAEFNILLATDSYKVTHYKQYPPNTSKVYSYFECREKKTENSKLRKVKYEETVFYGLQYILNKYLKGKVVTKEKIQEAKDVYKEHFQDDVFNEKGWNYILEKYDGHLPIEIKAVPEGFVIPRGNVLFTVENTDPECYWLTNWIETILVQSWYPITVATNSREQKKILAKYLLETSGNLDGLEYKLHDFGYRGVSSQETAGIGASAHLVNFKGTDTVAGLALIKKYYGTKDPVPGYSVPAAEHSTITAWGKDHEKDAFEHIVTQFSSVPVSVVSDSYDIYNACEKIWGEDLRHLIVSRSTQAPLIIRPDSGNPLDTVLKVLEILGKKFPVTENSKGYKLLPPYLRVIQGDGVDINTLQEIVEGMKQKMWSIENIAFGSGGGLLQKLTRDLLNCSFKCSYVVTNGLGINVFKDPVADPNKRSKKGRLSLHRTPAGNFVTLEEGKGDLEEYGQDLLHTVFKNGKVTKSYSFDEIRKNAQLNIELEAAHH
Chain of NAMPT (P43490 whole entry): as above

| IC50 [1] [nM] | IC50 (NAMPT) [nM] | IC50 (PC3 cells) [nM] | SMILES |
| --- | --- | --- | --- |
| 26.6 | 0.169 | 2.54 | CC(C)C(=O)N1CCC(c2ccc(C(=O)NCc3ccn4ccnc4c3)s2)CC1 [Example 259, N-(imidazo[1,2-a]pyridin-7-ylmethyl)-5-[1-(2-methylpropanoyl)piperidin-4-yl]thiophene-2-carboxamide] |
| 46.5 | 0.351 | 8.06 | O=C(NCc1ccn2ccnc2c1)c1ccc(C2CCN(C(=O)C3CC3)CC2)s1 [Example 260, 5-[1-(cyclopropylcarbonyl)piperidin-4-yl]-N-(imidazo[1,2-a]pyridin-7-ylmethyl)thiophene-2-carboxamide] |
| 62.7 | 0.231 | 5.1 | O=C(NCc1ccn2ccnc2c1)c1ccc(C2CCN(C(=O)C3CCOC3)CC2)s1 (stereo not drawn) [Example 261, N-(imidazo[1,2-a]pyridin-7-ylmethyl)-5-[1-(tetrahydrofuran-3-ylcarbonyl)piperidin-4-yl]thiophene-2-carboxamide] |
| 3.67 | 0.221 | 1.87 | O=C(NCc1ccn2ccnc2c1)c1ccc(C2CCN(C(=O)CC3CCOCC3)CC2)s1 [Example 262, N-(imidazo[1,2-a]pyridin-7-ylmethyl)-5-[1-(tetrahydro-2H-pyran-4-ylacetyl)piperidin-4-yl]thiophene-2-carboxamide] |
| 48.6 | 0.247 | 2.43 | CC(C)CC(=O)N1CCC(c2ccc(C(=O)NCc3ccn4ccnc4c3)s2)CC1 [Example 263, N-(imidazo[1,2-a]pyridin-7-ylmethyl)-5-[1-(3-methylbutanoyl)piperidin-4-yl]thiophene-2-carboxamide] |
| 40.4 | 0.412 | 6.69 | O=C(NCc1ccn2ccnc2c1)c1ccc(C2CCN(C(=O)c3ccno3)CC2)s1 [Example 264, N-(imidazo[1,2-a]pyridin-7-ylmethyl)-5-[1-(1,2-oxazol-5-ylcarbonyl)piperidin-4-yl]thiophene-2-carboxamide] |
| 33.1 | 0.266 | 1.59 | O=C(NCc1ccn2ccnc2c1)c1ccc(-c2cnn(CC3CCOCC3)c2)s1 [Example 265, N-(imidazo[1,2-a]pyridin-7-ylmethyl)-5-[1-(tetrahydro-2H-pyran-4-ylmethyl)-1H-pyrazol-4-yl]thiophene-2-carboxamide] |
| 120 | 0.333 | 606 | O=C(NCc1ccn2ccnc2c1)c1ccc(N2CC(CO)OC2=O)s1 (stereo not drawn) [Example 266, 5-[5-(hydroxymethyl)-2-oxo-1,3-oxazolidin-3-yl]-N-(imidazo[1,2-a]pyridin-7-ylmethyl)thiophene-2-carboxamide] |
| 54.3 | 0.291 | 665 | O=C(NCc1ccn2ccnc2c1)c1ccc(N2C[C@H](O)CC2=O)s1 [Example 267, 5-[(4R)-4-hydroxy-2-oxopyrrolidin-1-yl]-N-(imidazo[1,2-a]pyridin-7-ylmethyl)thiophene-2-carboxamide] |
| 755 | 0.169 | 5540 | O=C(NCc1ccn2ccnc2c1)c1ccc(N2C[C@@H](O)CC2=O)s1 [Example 268, 5-[(4S)-4-hydroxy-2-oxopyrrolidin-1-yl]-N-(imidazo[1,2-a]pyridin-7-ylmethyl)thiophene-2-carboxamide] |
| 41.2 | 0.169 | 15.1 | COCCn1cc(-c2ccc(C(=O)NCc3ccn4ccnc4c3)s2)cn1 [Example 269, N-(imidazo[1,2-a]pyridin-7-ylmethyl)-5-[1-(2-methoxyethyl)-1H-pyrazol-4-yl]thiophene-2-carboxamide] |
| 60.9 | 0.991 | 973 | O=C(NCCCCC1CCN(C(=O)c2ccccc2)CC1)Nc1ccn2ccnc2c1 [Example 270, 1-[4-(1-benzoylpiperidin-4-yl)butyl]-3-imidazo[1,2-a]pyridin-7-ylurea] |
| 51.7 | 0.169 | 2.71 | CS(=O)(=O)N1CCC(c2ccc(C(=O)NCc3ccn4ccnc4c3)s2)CC1 [Example 271, N-(imidazo[1,2-a]pyridin-7-ylmethyl)-5-[1-(methylsulfonyl)piperidin-4-yl]thiophene-2-carboxamide] |
| 27.2 | 0.417 | 15.6 | CCc1c(-c2ccc(C(=O)NCc3ccn4ccnc4c3)s2)cnn1CC1CCCCC1 [Example 272, 5-[1-(cyclohexylmethyl)-5-ethyl-1H-pyrazol-4-yl]-N-(imidazo[1,2-a]pyridin-7-ylmethyl)thiophene-2-carboxamide] |
| 49.3 | 0.555 | 2.35 | COC1(Cn2ncc(-c3ccc(C(=O)NCc4ccn5ccnc5c4)s3)c2C)CCCC(C)(C)C1 (stereo not drawn) [Example 273, N-(imidazo[1,2-a]pyridin-7-ylmethyl)-5-{1-[(1-methoxy-3,3-dimethylcyclohexyl)methyl]-5-methyl-1H-pyrazol-4-yl}thiophene-2-carboxamide] |
| 17.8 | 0.196 | 10.4 | CC(C)CCC(=O)Nc1ccc(NC(=O)NCc2ccc3nccn3c2)cc1 [Example 274, N-(4-{[(imidazo[1,2-a]pyridin-6-ylmethyl)carbamoyl]amino}phenyl)-4-methylpentanamide] |
| 12.3 | 0.43 | 23.9 | O=C(CCC1CCCC1)Nc1ccc(NC(=O)NCc2ccc3nccn3c2)cc1 [Example 275, 3-cyclopentyl-N-(4-{[(imidazo[1,2-a]pyridin-6-ylmethyl)carbamoyl]amino}phenyl)propanamide] |
| 107 | 0.468 | 38.1 | CC(C)OCC(=O)Nc1ccc(NC(=O)NCc2ccc3nccn3c2)cc1 [Example 276, N-(4-{[(imidazo[1,2-a]pyridin-6-ylmethyl)carbamoyl]amino}phenyl)-2-(propan-2-yloxy)acetamide] |
| 103 | 0.667 | 83.2 | O=C(CC1CCCO1)Nc1ccc(NC(=O)NCc2ccc3nccn3c2)cc1 (stereo not drawn) [Example 277, N-(4-{[(imidazo[1,2-a]pyridin-6-ylmethyl)carbamoyl]amino}phenyl)-2-(tetrahydrofuran-2-yl)acetamide] |
| 102 | 0.621 | 51.7 | O=C(CC1CCOCC1)Nc1ccc(NC(=O)NCc2ccc3nccn3c2)cc1 [Example 278, N-(4-{[(imidazo[1,2-a]pyridin-6-ylmethyl)carbamoyl]amino}phenyl)-2-(tetrahydro-2H-pyran-4-yl)acetamide] |
| 68.8 | 0.437 | 869 | O=C(CCc1ccccc1)Nc1ccc(NC(=O)NCc2ccc3nccn3c2)cc1 [Example 279, N-(4-{[(imidazo[1,2-a]pyridin-6-ylmethyl)carbamoyl]amino}phenyl)-3-phenylpropanamide] |
| 11.3 | 0.213 | 13 | CC(C)CCC(=O)Nc1ccc(NC(=O)NCc2ccn3ccnc3c2)cc1 [Example 280, N-(4-{[(imidazo[1,2-a]pyridin-7-ylmethyl)carbamoyl]amino}phenyl)-4-methylpentanamide] |
| 5.5 | 0.214 | 24.8 | O=C(CCC1CCCC1)Nc1ccc(NC(=O)NCc2ccn3ccnc3c2)cc1 [Example 281, 3-cyclopentyl-N-(4-{[(imidazo[1,2-a]pyridin-7-ylmethyl)carbamoyl]amino}phenyl)propanamide] |
| 76.5 | 0.297 | 44.7 | CC(C)OCC(=O)Nc1ccc(NC(=O)NCc2ccn3ccnc3c2)cc1 [Example 282, N-(4-{[(imidazo[1,2-a]pyridin-7-ylmethyl)carbamoyl]amino}phenyl)-2-(propan-2-yloxy)acetamide] |
| 63.2 | 0.264 | 145 | O=C(CC1CCCO1)Nc1ccc(NC(=O)NCc2ccn3ccnc3c2)cc1 (stereo not drawn) [Example 283, N-(4-{[(imidazo[1,2-a]pyridin-7-ylmethyl)carbamoyl]amino}phenyl)-2-(tetrahydrofuran-2-yl)acetamide] |
| 7.96 | 0.169 | 107 | O=C(CC1CCOCC1)Nc1ccc(NC(=O)NCc2ccn3ccnc3c2)cc1 [Example 284, N-(4-{[(imidazo[1,2-a]pyridin-7-ylmethyl)carbamoyl]amino}phenyl)-2-(tetrahydro-2H-pyran-4-yl)acetamide] |
| 82.6 | 0.593 | 301 | O=C(CCc1ccccc1)Nc1ccc(NC(=O)NCc2ccn3ccnc3c2)cc1 [Example 285, N-(4-{[(imidazo[1,2-a]pyridin-7-ylmethyl)carbamoyl]amino}phenyl)-3-phenylpropanamide] |
| 120 | 0.412 | 19.4 | O=C(NCc1ccn2ccnc2c1)Nc1ccc(C2CCN(C(=O)[C@H]3CCOC3)CC2)cc1 [Example 286, 1-(imidazo[1,2-a]pyridin-7-ylmethyl)-3-(4-{1-[(3S)-tetrahydrofuran-3-ylcarbonyl]piperidin-4-yl}phenyl)urea] |
| 67.3 | 0.351 | 24.1 | O=C(NCc1ccn2ccnc2c1)Nc1ccc(C2CCN(C(=O)[C@@H]3CCOC3)CC2)cc1 [Example 287, 1-(imidazo[1,2-a]pyridin-7-ylmethyl)-3-(4-{1-[(3R)-tetrahydrofuran-3-ylcarbonyl]piperidin-4-yl}phenyl)urea] |
